Source: patent US20230146455A1, “TREATMENT OF INFLAMMATORY DISEASES WITH PEPTIDES AND PHARMACEUTICAL COMPOSITIONS” (Yuyu Pharma, Inc., priority 2020, published 2023)
Where “and” joins values, the source holds several entries; their conditions need not be identical. Equal entries are not always repeated. Entries after “also recorded” stand apart in the source; their conditions may differ. Where a SMILES comes first, the peptide text is derived from it. [ ]: non-standard residue; d: D form. Hyp = O=C(O)[C@@H]1C[C@@H](O)CN1

Test system: human PBMCs
Assay: PBMC cell counts (total, live, viability; trypan blue, Countess) with and without LPS and test articles (Example 9)
Assay type: cell-based
Description: Treatment Human PBMCs were pretreated with YY-101, YDE-011 and YDE-043 or reference compound; Xiidra® at various concentration (ranging from 1 nM to 100 uM) for 2 h before stimulation. An equal volume of 0.5% DMSO was used as a vehicle control. Then, the cells were treated with LPS at 5 ug/ml. The supernatants from treated cells were harvested at 24 h and placed in a 96 well for Luminex cytokine & chemokine profiling using a Luminex 200 multiplex assay (Luminex; R&D system, USA).
The main study arm with triplicate wells per group in a 24-well plate: • 1. Blank • 2. PBMC: 0.5% DMSO • 3. PBMC+LPS (5 ug/ml) • 4. PBMC+YY-101 100 uM • 5. PBMC+YY-101 10 uM • 6. PBMC+YY-101 1 uM • 7. PBMC+YY-101 0.1 uM • 8. PBMC+YY-101 0.01 uM • 9. PBMC+LPS (5 ug/ml)+Xiidra®100 uM • 10. PBMC+LPS (5 ug/ml)+Xiidra® 10 uM • 11. PBMC+LPS (5 ug/ml)+Xiidra® 1 uM • 12. PBMC+LPS (5 ug/ml)+Xiidra®0.1 uM • 13. PBMC+LPS (5 ug/ml)+Xiidra®0.01 uM • 14. PBMC+LPS (5 ug/ml)+Xiidra®0.001 uM • 15. PBMC+LPS (5 ug/ml)+YY-101 100 uM • 16. PBMC+LPS (5 ug/ml)+YY-101 10 uM • 17. PBMC+LPS (5 ug/ml)+YY-101 1 uM • 18. PBMC+LPS (5 ug/ml)+YY-101 0.1 uM • 19. PBMC+LPS (5 ug/ml)+YY-101 0.01 uM • 20. PBMC+LPS (5 ug/ml)+YY-101 0.001 uM • 21. PBMC+LPS (5 ug/ml)+YDE-011 100 uM • 22. PBMC+LPS (5 ug/ml)+YDE-011 10 uM • 23. PBMC+LPS (5 ug/ml)+YDE-011 1 uM • 24. PBMC+LPS (5 ug/ml)+YDE-011 0.1 uM • 25. PBMC+LPS (5 ug/ml)+YDE-011 0.01 uM • 26. PBMC+LPS (5 ug/ml)+YDE-011 0.001 uM • 27. PBMC+LPS (5 ug/ml)+YDE-043 100 uM • 28. PBMC+LPS (5 ug/ml)+YDE-043 10 uM • 29. PBMC+LPS (5 ug/ml)+YDE-043 1 uM • 30. PBMC+LPS (5 ug/ml)+YDE-043 0.1 uM • 31. PBMC+LPS (5 ug/ml)+YDE-043 0.01 uM • 32. PBMC+LPS (5 ug/ml)+YDE-043 0.001 uM
The number of PBMCs was measured after 24 hr of treatment. The culture both and trypan blue were diluted 1:1 and 10 ul was added to Countess cell counting chamber (Thermo fisher, USA). The number of PBMCs was measured using a Countess automated cell counter (Thermo fisher, USA).

[1] = PBMC + LPS(5 ug/ml), test article 100 uM, Mean
[2] = PBMC + LPS(5 ug/ml), test article 100 uM, single replicates
[3] = PBMC + compound 0.01 uM, no LPS, 24 hr
[4] = PBMC + compound 0.1 uM, no LPS, 24 hr
[5] = PBMC + compound 1 uM, no LPS, 24 hr
[6] = PBMC + compound 10 uM, no LPS, 24 hr
[7] = PBMC + compound 100 uM, no LPS, 24 hr
[8] = PBMC + test article 0.01 uM, no LPS, Mean
[9] = PBMC + test article 0.01 uM, no LPS, single replicates
[10] = PBMC + test article 0.1 uM, no LPS, Mean
[11] = PBMC + test article 0.1 uM, no LPS, single replicates
[12] = PBMC + test article 1 uM, no LPS, Mean
[13] = PBMC + test article 1 uM, no LPS, single replicates
[14] = PBMC + test article 10 uM, no LPS, Mean
[15] = PBMC + test article 10 uM, no LPS, single replicates
[16] = PBMC + test article 100 uM, no LPS, Mean
[17] = PBMC + test article 100 uM, no LPS, single replicates
[18] = PBMC without LPS, test article 0.01 uM, Mean
[19] = PBMC without LPS, test article 0.01 uM, single replicates
[20] = PBMC without LPS, test article 0.1 uM, Mean
[21] = PBMC without LPS, test article 0.1 uM, single replicates
[22] = PBMC without LPS, test article 1 uM, Mean
[23] = PBMC without LPS, test article 1 uM, single replicates
[24] = PBMC without LPS, test article 10 uM, Mean
[25] = PBMC without LPS, test article 10 uM, single replicates
[26] = PBMC without LPS, test article 100 uM, Mean
[27] = PBMC without LPS, test article 100 uM, single replicates

In the case of `CC(C)C[C@H](NC(=O)CNC(=O)[C@H](CC(=O)O)NC(=O)[C@H](CCC(N)=O)NC(=O)CNC(=O)[C@@H]1C[C@@H](O)CN1)C(=O)N[C@@H](C)C(=O)NCC(=O)N1CCC[C@H]1C(=O)N[C@@H](CCCCN)C(=O)O` [YY-101] (H-[Hyp]GQDGLAGPK-OH; N-terminus and C-terminus assumed), the Live cell [1] is reported as 5.8 10^5/ml, the Total cell count [1] is reported as 7.8 10^5/ml and the Live cell [2] is reported as 6.3 10^5/ml and 6.2 10^5/ml and 5.0 10^5/ml. The Total cell count [2] was 8.7 10^5/ml and 8.8 10^5/ml and 5.8 10^5/ml, the Viability [2] was 73.0% and 70.0% and 87.0% and the Live cell [3] was 5.0 ± 0.2 10^5/ml. The Total cell [3] was 5.9 ± 0.4 10^5/ml, the Live cell [4] was 5.1 ± 0.2 10^5/ml and the Total cell [4] was 6.1 ± 0.8 10^5/ml. For the same compound, the Live cell [5] was 5.5 ± 0.0 10^5/ml, the Total cell [5] was 6.1 ± 0.2 10^5/ml and the Live cell [6] was 6.3 ± 0.2 10^5/ml. The Total cell [6] was 7.4 ± 0.3 10^5/ml, the Live cell [7] was 6.7 ± 0.3 10^5/ml and the Total cell [7] was 7.8 ± 0.5 10^5/ml. The Live cell [8] was 5.0 10^5/ml, the “Live cell (10^5/ml)” value [8] was 5.0 10^5/ml and the “Live cell, Mean” value [8] was 5.0 10^5/ml. For the same compound, the Live cell (PBMC + test article 0.01 uM, no LPS, individual replicates (1st, 2nd)) was 5.2 10^5/ml and 4.8 10^5/ml, the Live cell [9] was 5.2 10^5/ml and 4.8 10^5/ml and the “Live cell (10^5/ml)” value [9] was 5.2 10^5/ml and 4.8 10^5/ml. For the same compound, the Live cell (PBMC + test article 0.01 uM, no LPS, single replicates (1st, 2nd)) was 5.2 10^5/ml and 4.8 10^5/ml, the Live cell [10] was 5.1 10^5/ml and the “Live cell (10^5/ml)” value [10] was 5.1 10^5/ml. For the same compound, the “Live cell, Mean” value [10] was 5.1 10^5/ml, the Live cell (PBMC + test article 0.1 uM, no LPS, individual replicates (1st, 2nd)) was 4.4 10^5/ml and 5.8 10^5/ml and the Live cell [11] was 4.4 10^5/ml and 5.8 10^5/ml. The “Live cell (10^5/ml)” value [11] was 4.4 10^5/ml and 5.8 10^5/ml, the Live cell (PBMC + test article 0.1 uM, no LPS, single replicates (1st, 2nd)) was 4.4 10^5/ml and 5.8 10^5/ml and the Live cell [12] was 5.5 10^5/ml. For the same compound, the “Live cell (10^5/ml)” value [12] was 5.5 10^5/ml, the “Live cell, Mean” value [12] was 5.5 10^5/ml and the Live cell (PBMC + test article 1 uM, no LPS, individual replicates (1st, 2nd)) was 5.5 10^5/ml. The Live cell [13] was 5.5 10^5/ml, the “Live cell (10^5/ml)” value [13] was 5.5 10^5/ml and the Live cell (PBMC + test article 1 uM, no LPS, single replicates (1st, 2nd)) was 5.5 10^5/ml. The Live cell [14] was 6.3 10^5/ml, the “Live cell (10^5/ml)” value [14] was 6.3 10^5/ml and the “Live cell, Mean” value [14] was 6.3 10^5/ml. For the same compound, the Live cell (PBMC + test article 10 uM, no LPS, individual replicates (1st, 2nd)) was 6.4 10^5/ml and 6.1 10^5/ml, the Live cell [15] was 6.4 10^5/ml and 6.1 10^5/ml and the “Live cell (10^5/ml)” value [15] was 6.4 10^5/ml and 6.1 10^5/ml. For the same compound, the Live cell (PBMC + test article 10 uM, no LPS, single replicates (1st, 2nd)) was 6.4 10^5/ml and 6.1 10^5/ml, the Live cell [16] was 6.7 10^5/ml and the “Live cell (10^5/ml)” value [16] was 6.7 10^5/ml. For the same compound, the “Live cell, Mean” value [16] was 6.7 10^5/ml, the Live cell (PBMC + test article 100 uM, no LPS, individual replicates (1st, 2nd)) was 6.4 10^5/ml and 7.0 10^5/ml and the Live cell [17] was 6.4 10^5/ml and 7.0 10^5/ml. The “Live cell (10^5/ml)” value [17] was 6.4 10^5/ml and 7.0 10^5/ml, the Live cell (PBMC + test article 100 uM, no LPS, single replicates (1st, 2nd)) was 6.4 10^5/ml and 7.0 10^5/ml and the Live cell (PBMC without LPS, 0.01 uM, Mean) was 5.0 10^5/ml. The Live cell (PBMC without LPS, 0.01 uM, single replicates) was 5.2 10^5/ml and 4.8 10^5/ml, the Live cell (PBMC without LPS, 0.1 uM, Mean) was 5.1 10^5/ml and the Live cell (PBMC without LPS, 0.1 uM, single replicates) was 4.4 10^5/ml and 5.8 10^5/ml. The Live cell (PBMC without LPS, 1 uM, Mean) was 5.5 10^5/ml, the Live cell (PBMC without LPS, 1 uM, single replicates) was 5.5 10^5/ml and the Live cell (PBMC without LPS, 10 uM, Mean) was 6.3 10^5/ml. For the same compound, the Live cell (PBMC without LPS, 10 uM, single replicates) was 6.4 10^5/ml and 6.1 10^5/ml, the Live cell (PBMC without LPS, 100 uM, Mean) was 6.7 10^5/ml and the Live cell (PBMC without LPS, 100 uM, single replicates) was 6.4 10^5/ml and 7.0 10^5/ml. The Live cell [18] was 5.0 10^5/ml, the Total cell count [18] was 5.9 10^5/ml and the Live cell [19] was 5.2 10^5/ml and 4.8 10^5/ml. For the same compound, the Total cell count [19] was 6.3 10^5/ml and 5.5 10^5/ml, the Viability [19] was 83.0% and 87.0% and the Live cell [20] was 5.1 10^5/ml. The Total cell count [20] was 6.1 10^5/ml, the Viability [20] was 84.0% and the Live cell [21] was 4.4 10^5/ml and 5.8 10^5/ml. The Total cell count [21] was 5.2 10^5/ml and 6.9 10^5/ml, the Viability [21] was 84.0% and the Live cell [22] was 5.5 10^5/ml. The Total cell count [22] was 6.1 10^5/ml, the Live cell [23] was 5.5 10^5/ml and the Total cell count [23] was 5.9 10^5/ml and 6.3 10^5/ml. For the same compound, the Viability [23] was 92.0% and 87.0%, the Live cell [24] was 6.3 10^5/ml and the Total cell count [24] was 7.4 10^5/ml. For the same compound, the Live cell [25] was 6.4 10^5/ml and 6.1 10^5/ml, the Total cell count [25] was 7.6 10^5/ml and 7.1 10^5/ml and the Viability [25] was 85.0% and 87.0%. For the same compound, the Live cell [26] was 6.7 10^5/ml, the Total cell count [26] was 7.8 10^5/ml and the Live cell [27] was 6.4 10^5/ml and 7.0 10^5/ml. For the same compound, the Total cell count [27] was 7.3 10^5/ml and 8.2 10^5/ml, the Viability [27] was 88.0% and 85.0% and the “viability / total number of PBMCs (in words)” value (up to 100 μM) was “didn't affect the basal levels of most of cytokine/chemokine production or the viability of hPBMCs; also recorded: didn't affect any viability or the total number of PBMCs”. For the same compound, the “which treatments consistently affected the total and live number of PBMCs or the percent viability (in words)” value (up to 100 μM, 24-hour treatment) was “none of”.
